{"source": "patent US8883130B2", "about": "“Transparent antiperspirant gels” (Henkel AG & Co. KGaA, priority 2008, dated 2014)", "assay": "Emulsion stability with silicone-free water-in-oil emulsifiers", "assay_type": "physicochemical", "data": [{"substance": "Laureth-2", "values": [{"measurement": "stability of the emulsion", "result": "did not yield stable emulsions"}]}]}
